# Measured values as given in patent US20100184786A1, “Polar Quinazolines” (Wyeth LLC, priority 2008, published 2010).
# Columns and labels:
# [1] = Brain penetration data; format: in vivo; conditions: brain/blood, read-out: Brain/Blood ratio
# [2] = tested on: ABCA1 gene; experiment: Gene regulation by LXR (murine): ABCA1 gene regulation, mRNA by real-time PCR; format: cell-based; conditions: Mus musculus; for Emax: read-out: Agonism ABCA1
# [3] = target: T1, human LXRβ (Homo sapiens, UniProt P55055); experiment: Ligand-binding test procedure for human LXRβ (3H T0901317 tracer, flash plates); conditions: competition with 3H T0901317; read-out: hLXRb binding IC50
# T1 construct: biotin (biotinylated); made in house; host or cells: E. coli
# T1 sequence (P55055 1-460): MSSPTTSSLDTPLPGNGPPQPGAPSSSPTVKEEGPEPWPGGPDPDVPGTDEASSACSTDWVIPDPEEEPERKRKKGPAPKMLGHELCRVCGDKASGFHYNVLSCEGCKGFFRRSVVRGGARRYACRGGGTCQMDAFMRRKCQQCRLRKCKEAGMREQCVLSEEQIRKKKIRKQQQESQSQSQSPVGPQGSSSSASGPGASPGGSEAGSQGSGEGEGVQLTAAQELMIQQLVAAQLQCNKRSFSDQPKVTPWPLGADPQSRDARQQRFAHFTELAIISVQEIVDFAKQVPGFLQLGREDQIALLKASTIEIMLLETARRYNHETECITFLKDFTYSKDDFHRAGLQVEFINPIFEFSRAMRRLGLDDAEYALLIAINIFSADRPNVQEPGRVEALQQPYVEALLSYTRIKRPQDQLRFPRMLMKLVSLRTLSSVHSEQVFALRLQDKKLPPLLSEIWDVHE
# Method: I. Ligand-Binding Test Procedure for Human LXRβ.
# • Buffer: 100 mM KCl, 100 mM TRIS (pH 7.4 at +4° C.), 8.6% glycerol, 0.1 mM PMSF*, 2 mM MTG*, 0.2% CHAPS (* not used in wash buffer) • Tracer: ^3H T0901317 • Receptor source: E. coli extracted from cells expressing biotinylated hLXRβ. Extract was made in a similar buffer as above, but with 50 mM TRIS.
# • Washed streptavidin and coated flash plates with wash buffer. • Diluted receptor extract to give Bmax˜4000 cpm and add to the wells. • Wrapped the plates in aluminum foil and stored them at +4° C. overnight.
# (§1) • Made a dilution series in DMSO of the test ligands. • Made a 5 nM solution of the radioactive tracer in buffer. • Mixed 2500 diluted tracer with 50 of the test ligand from each concentration of the dilution series. • Washed the receptor-coated flash plates. • Added 2000 per well of the ligand/radiolabel mixture to the receptor-coated flash plates. • Wrapped the plates in aluminum foil and incubate at +4° C. over night.
# • Aspirated wells, and washed the flashed plates. Sealed the plate. • Measured the remaining radioactivity in the plate.
# [4] = target: T2, human LXRα (Homo sapiens, UniProt Q13133); experiment: Ligand-binding test procedure for human LXRα (3H T0901317 tracer, flash plates); conditions: competition with 3H T0901317; read-out: hLXRa binding IC50
# T2 construct: biotin (biotinylated); made in house; host or cells: E. coli
# T2 sequence (Q13133 1-447): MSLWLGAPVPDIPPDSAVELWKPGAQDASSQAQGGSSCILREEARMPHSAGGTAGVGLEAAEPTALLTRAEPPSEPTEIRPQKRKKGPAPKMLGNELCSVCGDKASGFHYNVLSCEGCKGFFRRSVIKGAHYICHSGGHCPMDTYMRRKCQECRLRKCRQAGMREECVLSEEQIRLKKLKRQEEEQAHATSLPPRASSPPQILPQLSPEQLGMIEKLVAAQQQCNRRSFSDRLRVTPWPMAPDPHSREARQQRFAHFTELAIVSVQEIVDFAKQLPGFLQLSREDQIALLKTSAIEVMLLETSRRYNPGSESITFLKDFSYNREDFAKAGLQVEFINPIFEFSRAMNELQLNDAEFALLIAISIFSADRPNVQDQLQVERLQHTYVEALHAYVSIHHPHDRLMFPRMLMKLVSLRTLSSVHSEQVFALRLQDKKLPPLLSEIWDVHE
# Method: II. Ligand-Binding Test Procedure for Human LXRa.
# • Buffer: 100 mM KCl, 100 mM TRIS (pH 7.4 at +4° C.), 8.6% glycerol, 0.1 mM PMSF*, 2 mM MTG*, 0.2% CHAPS (* not used in wash buffer) • Tracer: ^3H T0901317 • Receptor source: E. coli extract from cells expressing biotinylated hLXRα. Extract was made in a similar buffer as above, but with 50 mM TRIS.
# • Washed streptavidin and coated flash plates with wash buffer. • Diluted receptor extract to give Bmax˜4000 cpm and add to the wells. • Wrapped the plates in aluminum foil and stored them at +4° C. over night.
# as §1
# • Aspirated wells, and wash the flashed plates. Sealed the plate. • Measured the remaining radioactivity in the plate.
Structure (SMILES),Kp [1],EC50 [2] [nM],IC50 [3] [nM],IC50 [4] [nM],Emax [2] [%]
CCS(=O)(=O)c1cccc(Oc2ccc(F)c(-c3ncnc4c(Cl)cccc34)c2)c1,1.2,–,–,–,–
"O=C(O)CS(=O)(=O)c1cccc(Oc2ccc(Cl)c(-c3ncnc4c(C(F)(F)F)cccc34)c2)c1 [Example 15, [(3-{4-chloro-3-[8-(trifluoromethyl)quinazolin-4-yl]phenoxy}phenyl)sulfonyl]acetic acid]",–,2920,19,1010,51
"N#CCCCS(=O)(=O)c1cccc(Oc2ccc(Cl)c(-c3ncnc4c(C(F)(F)F)cccc34)c2)c1 [Example 3, 4-[(3-{4-chloro-3-[8-(trifluoromethyl)quinazolin-4-yl]phenoxy}phenyl)sulfonyl]-butanenitrile]",–,2700,35,512,71
"NS(=O)(=O)c1cccc(Oc2ccc(Cl)c(-c3ncnc4c(Cl)cccc34)c2)c1 [Example 17, 3-[4-chloro-3-(8-chloroquinazolin-4-yl)phenoxy]benzenesulfonamide]",–,1480,151,1710,74
"NS(=O)(=O)c1cccc(Oc2ccc(Cl)c(-c3ncnc4c(C(F)(F)F)cccc34)c2)c1 [Example 19, 3-{4-chloro-3-[8-(trifluoromethyl)quinazolin-4-yl]phenoxy}benzenesulfonamide]",–,220,49,581,95
"NC(=O)CCCS(=O)(=O)c1cccc(Oc2ccc(Cl)c(-c3ncnc4c(C(F)(F)F)cccc34)c2)c1 [Example 9, 4-[(3-{4-chloro-3-[8-(trifluoromethyl)quinazolin-4-yl]phenoxy}phenyl)sulfonyl]-butanamide]",0.06,1900,41,407,91
"N#CCCCCS(=O)(=O)c1cccc(Oc2ccc(F)c(-c3ncnc4c(Cl)cccc34)c2)c1 [Example 52, 5-({3-[3-(8-chloroquinazolin-4-yl)-4-fluorophenoxy]phenyl}sulfonyl)pentanenitrile]",–,1800,107,2030,74
CNS(=O)(=O)c1cccc(Oc2ccc(F)c(-c3ncnc4c(C(F)(F)F)cccc34)c2)c1 [Example 22],–,290,10,149,81
"N#CCS(=O)(=O)c1cccc(Oc2ccc(Cl)c(-c3ncnc4c(C(F)(F)F)cccc34)c2)c1 [Example 11, [(3-{4-chloro-3-[8-(trifluoromethyl)quinazolin-4-yl]phenoxy}phenyl)sulfonyl]-acetonitrile]",0.16,1760,40,425,95
"CS(=O)(=O)CCCS(=O)(=O)c1cccc(Oc2ccc(F)c(-c3ncnc4c(C(F)(F)F)cccc34)c2)c1 [Example 32, 4-[2-fluoro-5-(3-{[3-(methylsulfonyl)propyl]sulfonyl}phenoxy)phenyl]-8-(trifluoromethyl)-quinazoline]",–,1010,59,660,78
"NC(=O)CS(=O)(=O)c1cccc(Oc2ccc(Cl)c(-c3ncnc4c(C(F)(F)F)cccc34)c2)c1 [Example 14, 2-[(3-{4-chloro-3-[8-(trifluoromethyl)quinazoliyl]phenoxy}phenyl)sulfonyl]-acetamide]",–,1380,56,705,95
"CS(=O)(=O)CCCCS(=O)(=O)c1cccc(Oc2ccc(F)c(-c3ncnc4c(C(F)(F)F)cccc34)c2)c1 [Example 37, 4-[2-fluoro-5-(3-{[4-(methylsulfonyl)butyl]sulfonyl}phenoxy)phenyl]-8-(trifluoromethyl)-quinazoline]",–,415,66,536,77
"N#CCCCS(=O)(=O)c1cccc(Oc2ccc(F)c(-c3ncnc4c(C(F)(F)F)cccc34)c2)c1 [Example 25, 4-[(3-{4-fluoro-3-[8-(trifluoromethyl)quinazolin-4-yl]phenoxy}phenyl)sulfonyl]butanenitrile]",0.55,2470,112,1520,68
CS(=O)(=O)c1cccc(Oc2ccc(F)c(-c3ncnc4c(Cl)cccc34)c2)c1,1.2,–,–,–,–
"CNS(=O)(=O)c1cccc(Oc2ccc(Cl)c(-c3ncnc4c(Cl)cccc34)c2)c1 [Example 16, 3-[4-chloro-3-(8-chloroquinazolin-4-yl)phenoxy]-N-methylbenzenesulfonamide]",–,255,11,146,98

# More lines, main results first:
Kp [1],EC50 [2] [nM],IC50 [3] [nM],IC50 [4] [nM],Structure (SMILES),Emax [2] [%]
1.45,–,–,–,CS(=O)(=O)c1cccc(Oc2ccc(F)c(-c3ncnc4c(C(F)(F)F)cccc34)c2)c1,–
–,650,121,1010,"NS(=O)(=O)c1cccc(Oc2ccc(F)c(-c3ncnc4c(C(F)(F)F)cccc34)c2)c1 [Example 21, 3-{4-fluoro-3-[8-(trifluoromethyl)quinazolin-4-yl]phenoxy}benzenesulfonamide]",68
–,2170,126,1310,"NC(=O)CCCS(=O)(=O)c1cccc(Oc2ccc(Cl)c(-c3ncnc4c(Cl)cccc34)c2)c1 [Example 8, 4-({3-[4-chloro-3-(8-chloroquinazolin-4-yl)phenoxy]phenyl}sulfonyl)butanamide]",74
–,–,97,2800,"Cc1nc(-c2cc(Oc3cccc(S(=O)(=O)CCCCC#N)c3)ccc2Cl)c2cccc(C(F)(F)F)c2n1 [Example 61, 5-[(3-{4-chloro-3-[2-methyl-8-(trifluoromethyl)quinazolin-4-yl]phenoxy}phenyl)sulfonyl]-pentanenitrile]",27
2.27,–,–,–,Cc1nc(-c2cccc(-c3cccc(S(C)(=O)=O)c3)c2)c2cccc(C(F)(F)F)c2n1,–
–,450,17,33,"CNS(=O)(=O)c1cccc(Oc2ccc(F)c(-c3ncnc4c(Cl)cccc34)c2)c1 [Example 23, 3-[3-(8-chloroquinazolin-4-yl)-4-fluorophenoxy]-N-methylbenzenesulfonamide]",85
1.57,–,–,–,CCS(=O)(=O)c1cccc(Oc2ccc(Cl)c(-c3nc(C)nc4c(C(F)(F)F)cccc34)c2)c1,–
–,85,4,81,CNS(=O)(=O)c1cccc(Oc2ccc(Cl)c(-c3ncnc4c(C(F)(F)F)cccc34)c2)c1 [Example 18],94
